In patent publication US20240166652A1, “MODULATORS OF THE INTEGRATED STRESS PATHWAY” (Calico Life Sciences LLC, priority 2017, published 2024) one finds EC50 data, which are given here for 21 compounds.

For this assay, the system named is ATF4 luciferase reporter in HEK293T cells. The assay is described as follows: ATF4-Luc assay (ATF4 luciferase reporter, tunicamycin-treated HEK293T cells). The class given is cell-based, human. The settings on record: Homo sapiens, HEK-293T; HEK293T cells carrying the ATF4 luciferase reporter, 1 μg/mL tunicamycin, 7 hours.
With `O=C(COc1ccc(Cl)c(F)c1)NC12CC(NS(=O)(=O)CCOc3ccc(F)cc3)(C1)C2` [Compound 489, 2-(4-chloro-3-fluorophenoxy)-N-(3-{[2-(4-fluorophenoxy)ethanesulfonyl]amino}bicyclo[1.1.1]pentan-1-yl)acetamide], the EC50 is 500 to 2000 nM.
The value for `N#Cc1ccc(CS(=O)(=O)NC23CC(NC(=O)COc4ccc(Cl)c(F)c4)(C2)C3)cc1` [Compound 490, 2-(4-chloro-3-fluorophenoxy)-N-(3-{[(4-cyanophenyl)methanesulfonyl]amino}bicyclo[1.1.1]pentan-1-yl)acetamide] was 500 to 2000 nM; that for `O=C(COc1ccc(Cl)c(F)c1)NC12CC(NC(=O)Cc3cc(F)cc(F)c3)(C1)C2` [Compound 491, 2-(4-chloro-3-fluorophenoxy)-N-{3-[2-(3,5-difluorophenyl)acetamido]bicyclo[1.1.1]pentan-1-yl}acetamide] was above 2000 nM; that for `O=C(CNC(=O)c1ccccc1)NC12CC(NC(=O)COc3ccc(Cl)c(F)c3)(C1)C2` [Compound 492, N-[2-({3-[2-(4-chloro-3-fluorophenoxy)acetamido]bicyclo[1.1.1]pentan-1-yl}amino)-2-oxoethyl]benzamide] was above 2000 nM.
On to `Cc1ncnc(C)c1OCC(=O)NC12CCC(NC(=O)COc3ccc(Cl)c(F)c3)(CC1)C[C@@H]2O` [Compound 493, 2-(4-chloro-3-fluorophenoxy)-N-[(3S)-4-{2-[(4,6-dimethylpyrimidin-5-yl)oxy]acetamido}-3-hydroxybicyclo[2.2.2]octan-1-yl]acetamide], for which the EC50 was above 2000 nM.
The value for `CCc1cc(C)cc(OCC(=O)NC23CCC(NC(=O)COc4ccc(Cl)c(F)c4)(CC2)C[C@@H]3O)c1` [Compound 494, 2-(4-chloro-3-fluorophenoxy)-N-{(3S)-4-[2-(3-ethyl-5-methylphenoxy)acetamido]-3-hydroxybicyclo[2.2.2]octan-1-yl}acetamide] was 250 to 500 nM; that for `O=C(COc1ccc(Cl)c(F)c1)NC12CCC(NC(=O)COc3cccnc3)(CC1)[C@@H](O)C2` [Compound 495, 2-(4-chloro-3-fluorophenoxy)-N-[(3S)-3-hydroxy-4-{2-[(pyridin-3-yl)oxy]acetamido}bicyclo[2.2.2]octan-1-yl]acetamide] was 10 to 50 nM; that for `CC(C)c1cc(OCC(=O)NC23CCC(NC(=O)COc4ccc(Cl)c(F)c4)(CC2)C[C@@H]3O)cc(C(C)C)c1` [Compound 496, 2-(4-chloro-3-fluorophenoxy)-N-[(3S)-4-{2-[3,5-di(propan-2-yl)phenoxy]acetamido}-3-hydroxybicyclo[2.2.2]octan-1-yl]acetamide] was 500 to 2000 nM.
Regarding `COc1cc(OCC(=O)NC23CCC(NC(=O)COc4ccc(Cl)c(F)c4)(CC2)C[C@@H]3O)nc(SC)n1` [Compound 497, 2-(4-chloro-3-fluorophenoxy)-N-[(3S)-3-hydroxy-4-(2-{[6-methoxy-2-(methylsulfanyl)pyrimidin-4-yl]oxy}acetamido)bicyclo[2.2.2]octan-1-yl]acetamide], the EC50 was in the range of 500 to 2000 nM.
The value for `COc1cc(OC)nc(OCC(=O)NC23CCC(NC(=O)COc4ccc(Cl)c(F)c4)(CC2)C[C@@H]3O)n1` [Compound 498, 2-(4-chloro-3-fluorophenoxy)-N-[(3S)-4-{2-[(4,6-dimethoxypyrimidin-2-yl)oxy]acetamido}-3-hydroxybicyclo[2.2.2]octan-1-yl]acetamide] was 250 to 500 nM; that for `Cc1ncc2c(c1OCC(=O)NC13CCC(NC(=O)COc4ccc(Cl)c(F)c4)(CC1)C[C@@H]3O)COC2` [Compound 499, 2-(4-chloro-3-fluorophenoxy)-N-[(3S)-3-hydroxy-4-{2-[(6-methyl-1,3-dihydrofuro[3,4-c]pyridin-7-yl)oxy]acetamido}bicyclo[2.2.2]octan-1-yl]acetamide] was above 2000 nM; that for `O=C(COc1ccc(Cl)c(F)c1)NC12CCC(NC(=O)COc3cccc(C(F)(F)F)c3)(CC1)[C@@H](O)C2` [Compound 501, 2-(4-chloro-3-fluorophenoxy)-N-[(3S)-3-hydroxy-4-{2-[3-(trifluoromethyl)phenoxy]acetamido}bicyclo[2.2.2]octan-1-yl]acetamide] was below 10 nM.
The value for `Cc1cc(C)cc(OCC(=O)NC23CCC(NC(=O)COc4ccc(Cl)c(F)c4)(CC2)C[C@@H]3O)c1` [Compound 502, 2-(4-chloro-3-fluorophenoxy)-N-{(3S)-4-[2-(3,5-dimethylphenoxy)acetamido]-3-hydroxybicyclo[2.2.2]octan-1-yl}acetamide] was 50 to 250 nM; that for `Cc1cc(OCC(=O)NC23CCC(NC(=O)COc4ccc(Cl)c(F)c4)(CC2)C[C@@H]3O)cc(C)c1C` [Compound 503, 2-(4-chloro-3-fluorophenoxy)-N-{(3S)-3-hydroxy-4-[2-(3,4,5-trimethylphenoxy)acetamido]bicyclo[2.2.2]octan-1-yl]acetamide] was 10 to 50 nM.
As to `CS(=O)(=O)c1ccc(OCC(=O)NC23CCC(NC(=O)COc4ccc(Cl)c(F)c4)(CC2)C[C@@H]3O)cc1` [Compound 504, 2-(4-chloro-3-fluorophenoxy)-N-[(3S)-3-hydroxy-4-{2-[4-(methanesulfonyl)phenoxy]acetamido}bicyclo[2.2.2]octan-1-yl] acetamide], the 50% effective concentration (EC50) is 50 to 250 nM.
For `O=C(COc1ccc(Cl)c(F)c1)NC12CCC(NC(=O)COc3ccc(OC(F)(F)F)cc3)(CC1)[C@@H](O)C2` [Compound 505, 2-(4-chloro-3-fluorophenoxy)-N-[(3S)-3-hydroxy-4-{2-[4-(trifluoromethoxy)phenoxy]acetamido}bicyclo[2.2.2]octan-1-yl] acetamide], the EC50 was below 10 nM.
For `CC(C)(C)c1ccc(OCC(=O)NC23CCC(NC(=O)COc4ccc(Cl)c(F)c4)(CC2)C[C@@H]3O)cc1` [Compound 506, 2-(4-tert-butylphenoxy)-N-{(2S)-4-[2-(4-chloro-3-fluorophenoxy)acetamido]-2-hydroxybicyclo[2.2.2]octan-1-yl}acetamide], the EC50 is 250 to 500 nM.
The same measure for `O=C(COc1ccc(Cl)c(F)c1)NC12CCC(NC(=O)COc3ccc(C(F)(F)F)cc3)(CC1)[C@@H](O)C2` [Compound 507, 2-(4-chloro-3-fluorophenoxy)-N-[(3S)-3-hydroxy-4-{2-[4-(trifluoromethyl)phenoxy]acetamido}bicyclo[2.2.2]octan-1-yl]acetamide]: below 10 nM.
The value for `CCOc1ccc(OCC(=O)NC23CCC(NC(=O)COc4ccc(Cl)c(F)c4)(CC2)C[C@@H]3O)cc1` [Compound 508, 2-(4-chloro-3-fluorophenoxy)-N-{(3S)-4-[2-(4-ethoxyphenoxy)acetamido]-3-hydroxybicyclo[2.2.2]octan-1-yl}acetamide] was 10 to 50 nM; that for `Cc1cccc(OCC(=O)NC23CCC(NC(=O)COc4ccc(Cl)c(F)c4)(CC2)C[C@@H]3O)c1` [Compound 509, 2-(4-chloro-3-fluorophenoxy)-N-{(3S)-3-hydroxy-4-[2-(3-methylphenoxy)acetamido]bicyclo[2.2.2]octan-1-yl}acetamide] was below 10 nM; that for `Cc1ccc(OCC(=O)NC23CCC(NC(=O)COc4ccc(Cl)c(F)c4)(CC2)C[C@@H]3O)cc1C` [Compound 510, 2-(4-chloro-3-fluorophenoxy)-N-{(3S)-4-[2-(3,4-dimethylphenoxy)acetamido]-3-hydroxybicyclo[2.2.2]octan-1-yl}acetamide] was below 10 nM.
